Literature values in US11224220B2, “Surfactant composition based on glycine betaine amide salts, process for preparing same and uses thereof” (SURFACTGREEN, priority 2018, dated 2022).

Conditions: prior art values (U.S. Pat. No. 7,829,521; Green Chem., 2008, 10, 310-320; WO 2013/188508 Table 5)

SMILES | surface tension [mN/m]
CCCCCCCCCCCCNC(=O)C[N+](C)(C)C [glycine betaine laurylamide] | 50
CCCCCCCCCCCCNC(=O)C[N+](C)(C)C [pure glycine betaine amide] | 38
